Laboratory results from patent publication US20120157401A1, “METHODS FOR TREATING NEUROFIBROMATOSIS” (PTC Therapeutics, Inc., priority 2009, published 2012).
Read-outs that look alike come from different tables or passages of the source.

System: hypoxia-inducible endogenous VEGF expression
Experiment: Hypoxia-inducible endogenous VEGF expression ELISA in HeLa cells, dose-response EC50 (Table 3)
Assay type: cell-based, human
Conditions: Homo sapiens
Method in brief: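 HeLa cells kept 24-48 h under hypoxia (1% O2, 5% CO2, nitrogen balance) with or without compound, e.g. seven concentrations; secreted VEGF in conditioned medium quantified by ELISA against a standard curve. Parallel Cell Titer Glo viability under identical conditions excludes cytotoxicity.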

[1] = HeLa cells, hypoxic conditions (1% O2), VEGF ELISA of conditioned media, read-out: ELISA EC50
[2] = HeLa cells, hypoxic conditions (1% O2), 24-48 hours, VEGF in conditioned media, read-out: ELISA EC50

Compound | EC50 [2] | further results
[H]/N=c1\sc(C)cn1CCOc1ccc([C@H]2c3[nH]c4ccc(Cl)cc4c3CCN2C(=O)Oc2ccc(Cl)cc2)cc1 [Compound 1568] | – | EC50 [1]: 0.008 to 0.04 µM
C=CCOc1ccc([C@H]2c3[nH]c4ccc(Cl)cc4c3CCN2C(=O)Oc2ccc(Cl)cc2)cc1 [Compound 1159] | < 0.008 µM | –
COc1ccc(C2c3[nH]c4ccc(Cl)cc4c3CCN2C(=O)Oc2ccc(Cl)cc2)cc1F (stereo not drawn) [Compound 1199] | 0.008 to 0.04 µM | –
O=C(Oc1ccc(Cl)cc1)N1CCc2c([nH]c3ccc(Cl)cc23)C1c1ccc(OCCCCCCN2CCOCC2)cc1 (stereo not drawn) [Compound 786] | – | EC50 (HeLa, read-out: ELISA EC50 μM): < 0.008 µM
O=C(Oc1ccc(F)cc1)N1CCc2c([nH]c3ccc(Cl)cc23)C1c1ccc(OCCCCNCCO)cc1 (stereo not drawn) [Compound 735] | – | EC50 (HeLa, read-out: ELISA EC50 μM): < 0.008 µM
C[Si](C)(C)CCS(=O)(=O)N1CCC(Oc2ccc([C@H]3c4[nH]c5ccc(Cl)cc5c4CCN3C(=O)Oc3ccc(F)cc3)cc2)CC1 [Compound 1607] | – | EC50 [1]: < 0.008 µM
O=C(Oc1ccc(F)cc1)N1CCc2c([nH]c3ccc(Cl)cc23)C1c1ccc(OCC(O)Cn2ccnn2)cc1 (stereo not drawn) [Compound 941] | < 0.008 µM | –
O=C(Oc1ccc(Cl)cc1)N1CCc2c([nH]c3ccc(Cl)cc23)C1c1ccc(OCCCCCCn2ccnc2)cc1 (stereo not drawn) [Compound 790] | < 0.008 µM | –
O=C(Oc1ccc(Cl)cc1)N1CCc2c([nH]c3ccc(Cl)cc23)C1c1ccc(I)cc1 (stereo not drawn) [Compound 428] | < 0.008 µM | –
COc1ccc(C2c3[nH]c4ccc(Cl)cc4c3CCN2C(=O)Oc2ccc(F)cc2)c(F)c1 (stereo not drawn) [Compound 1265] | 0.008 to 0.04 µM | –
O=C(Oc1ccc(F)cc1)N1CCc2c([nH]c3ccc(Cl)cc23)C1c1ccc(OCC2CO2)cc1 (stereo not drawn) [Compound 967] | 0.008 to 0.04 µM | –
CC(=O)N1CCN(CCCOc2cccc(C3c4[nH]c5ccc(Cl)cc5c4CCN3C(=O)Oc3ccc(F)cc3)c2)CC1 (stereo not drawn) [Compound 1364] | – | EC50 (HeLa, read-out: ELISA EC50 μM): 0.04 to 0.2 µM
O=C(Oc1ccc(Cl)cc1)N1CCc2c([nH]c3ccc(Cl)cc23)C1c1ccc(OCCNc2cccnc2)cc1 (stereo not drawn) [#843] | < 0.008 µM | –
Cc1cnc(C)c(Oc2ccc([C@H]3c4[nH]c5ccc(Cl)cc5c4CCN3C(=O)Oc3ccc(Cl)cc3)cc2)n1 [Compound 1658] | – | EC50 [1]: < 0.008 µM
CCC(=O)NCC(O)COc1ccc(C2c3[nH]c4ccc(Cl)cc4c3CCN2C(=O)Oc2ccc(Cl)cc2)cc1 (stereo not drawn) [Compound 1558] | – | EC50 [1]: 0.008 to 0.04 µM
COc1cc(C2c3[nH]c4ccc(Cl)cc4c3CCN2C(=O)Oc2ccc(Cl)cc2)ccc1OCCN1CCOCC1 (stereo not drawn) [Compound 1092] | – | EC50 (HeLa, read-out: ELISA EC50 μM): 0.008 to 0.04 µM
COc1ccc(OC(=O)N2CCc3c([nH]c4ccc(Cl)cc34)C2c2ccc(OCC(O)CO)cc2)cc1 (stereo not drawn) [Compound 635] | 0.008 to 0.04 µM | –
O=C(Oc1ccccc1Cl)N1CCc2c([nH]c3ccc(Cl)cc23)C1c1ccc(C(F)(F)F)cc1 (stereo not drawn) [Compound 594] | 0.04 to 0.2 µM | –
COCCN(C)CCCOc1cccc(C2c3[nH]c4ccc(Cl)cc4c3CCN2C(=O)Oc2ccc(F)cc2)c1 (stereo not drawn) [Compound 1121] | – | EC50 (HeLa, read-out: ELISA EC50 μM): > 1 µM
COc1cc(C2c3[nH]c4ccc(Cl)cc4c3CCN2C(=O)Oc2ccccc2)ccc1OCCCn1cncn1 (stereo not drawn) [Compound 1150] | 0.008 to 0.04 µM | –
CC(C)C(=O)Nc1ccc(C2c3[nH]c4ccc(Cl)cc4c3CCN2C(=O)Oc2ccc(Cl)cc2)cc1 (stereo not drawn) [Compound 482] | 0.04 to 0.2 µM | –
CC(CO)(CO)COc1ccc(C2c3[nH]c4ccc(Br)cc4c3CCN2C(=O)Oc2ccc(Cl)cc2)cc1 (stereo not drawn) [Compound 1353] | – | EC50 [1]: < 0.008 µM

Compound | EC50 [2] | further results
CC(CO)(CO)COc1ccc([C@H]2c3[nH]c4ccc(Cl)cc4c3CCN2C(=O)Oc2ccccc2)cc1 [Compound 1336] | – | EC50 [1]: 0.008 to 0.04 µM
O=C(Oc1ccc(Cl)cc1)N1CCc2c([nH]c3ccc(Cl)cc23)C1c1ccc(F)cc1 (stereo not drawn) [Compound 444] | 0.008 to 0.04 µM | –
O=C(Oc1ccc(F)cc1)N1CCc2c([nH]c3ccc(Cl)cc23)C1c1ccc(OCCCn2ccnc2)cc1 (stereo not drawn) [Compound 889] | < 0.008 µM | –
O=C(Oc1ccc(F)cc1)N1CCc2c([nH]c3ccc(Cl)cc23)C1c1ccc(OCCCCCCNCCO)cc1 (stereo not drawn) [Compound 772] | – | EC50 (HeLa, read-out: ELISA EC50 μM): < 0.008 µM
CC(CO)(CO)COc1ccc(C2c3[nH]c4ccc(Br)cc4c3CCN2C(=O)Oc2ccc(F)cc2)cc1 (stereo not drawn) [Compound 1352] | – | EC50 [1]: < 0.008 µM
N#CCOc1ccc([C@H]2c3[nH]c4ccc(Cl)cc4c3CCN2C(=O)Oc2ccc(Cl)cc2)cc1 [Compound 1669] | – | EC50 [1]: < 0.008 µM
[H]/N=c1\sccn1CCOc1ccc(C2c3[nH]c4ccc(Cl)cc4c3CCN2C(=O)Oc2ccc(Cl)cc2)cc1 (stereo not drawn) [Compound 1393] | – | EC50 [1]: < 0.008 µM
O=C(Oc1ccc(Cl)cc1)N1CCc2c([nH]c3ccc(Cl)cc23)[C@@H]1c1ccc(OCCCN(CCO)CCO)cc1 [Compound 1258] | – | EC50 (HeLa, read-out: ELISA EC50 μM): < 0.008 µM
COc1ccc(OC(=O)N2CCc3c([nH]c4ccc(Cl)cc34)C2c2ccc(OCC3OCCO3)cc2)cc1 (stereo not drawn) [Compound 1055] | 0.008 to 0.04 µM | –
COC(=O)c1ccc(C2c3[nH]c4ccc(Cl)cc4c3CCN2C(=O)Oc2ccc(F)cc2)cc1 (stereo not drawn) [Compound 395] | < 0.008 µM | –
CC(=O)NCC(CCOc1ccc([C@H]2c3[nH]c4ccc(Cl)cc4c3CCN2C(=O)Oc2ccc(Cl)cc2)cc1)OC(C)=O (stereo partly drawn) [Compound 1277] | < 0.008 µM | –
O=C(Oc1ccc(Cl)cc1)N1CCc2c([nH]c3ccc(Cl)cc23)[C@@H]1c1ccc(OC2CCN(c3ncccn3)CC2)cc1 [Compound 1681] | – | EC50 [1]: < 0.008 µM
O=C(Oc1ccc(Cl)cc1)N1CCc2c([nH]c3ccc(Cl)cc23)C1c1ccc(OCCNc2ncncn2)cc1 (stereo not drawn) [Compound 1442] | – | EC50 [1]: < 0.008 µM
CN1CCN(CCCOc2ccc(C3c4[nH]c5ccc(Cl)cc5c4CCN3C(=O)Oc3ccc(Cl)cc3)cc2)CC1 (stereo not drawn) [Compound 961] | – | EC50 (HeLa, read-out: ELISA EC50 μM): 0.008 to 0.04 µM
O=C(Oc1ccc(F)cc1)N1CCc2c([nH]c3ccc(Cl)cc23)C1c1ccc(OCCCCCCCl)cc1 (stereo not drawn) [Compound 723] | < 0.008 µM | –
COc1ccc(C2c3[nH]c4ccc(Cl)cc4c3CCN2C(=O)Oc2ccc(Cl)cc2)cc1OCCCn1cncn1 (stereo not drawn) [Compound 1090] | 0.2 to 1 µM | –
O=C(Oc1ccc(Cl)cc1)N1CCc2c([nH]c3ccc(Cl)cc23)[C@@H]1c1ccc(OCCCn2nccn2)cc1 [Compound 1129] | < 0.008 µM | –
O=C(Oc1ccc(F)cc1)N1CCc2c([nH]c3ccc(Cl)cc23)C1c1ccc(OCC[C@H](O)CO)cc1 (stereo partly drawn) [Compound 1179] | < 0.008 µM | –
COCCN(C)CC(O)COc1ccc(C2c3[nH]c4ccc(Cl)cc4c3CCN2C(=O)Oc2ccc(F)cc2)cc1 (stereo not drawn) [Compound 936] | – | EC50 (HeLa, read-out: ELISA EC50 μM): < 0.008 µM
COc1ccc(OC(=O)N2CCc3c([nH]c4ccc(Cl)cc34)C2c2ccc(OCC(=O)NCCN3CCOCC3)cc2)cc1 (stereo not drawn) [Compound 1026] | – | EC50 (HeLa, read-out: ELISA EC50 μM): 0.008 to 0.04 µM
O=C(Oc1ccccc1)N1CCc2c([nH]c3ccc(Cl)cc23)C1c1ccc(OCC(O)CO)cc1 (stereo not drawn) [Compound 626] | 0.008 to 0.04 µM | –
CC(=O)N1CCN(CCCOc2ccc(C3c4[nH]c5ccc(Cl)cc5c4CCN3C(=O)Oc3ccc(Cl)cc3)cc2)CC1 (stereo not drawn) [Compound 903] | – | EC50 (HeLa, read-out: ELISA EC50 μM): < 0.008 µM

Compound | EC50 [2] | further results
O=C(Oc1ccc(F)cc1)N1CCc2c([nH]c3ccc(Cl)cc23)C1c1ccc(OCCCCN2CCCCC2)cc1 (stereo not drawn) [Compound 739] | – | EC50 (HeLa, read-out: ELISA EC50 μM): < 0.008 µM
COC(=O)NCC(O)COc1ccc(C2c3[nH]c4ccc(Cl)cc4c3CCN2C(=O)Oc2ccc(Cl)cc2)cc1 (stereo not drawn) [Compound 848] | < 0.008 µM | –
O=C(Oc1ccc(F)cc1)N1CCc2c([nH]c3ccc(Cl)cc23)C1c1ccc(OCCCn2ccnn2)cc1 (stereo not drawn) [Compound 995] | < 0.008 µM | –
COc1cc(C2c3[nH]c4ccc(Cl)cc4c3CCN2C(=O)Oc2ccccc2)ccc1OCCCn1ccnn1 (stereo not drawn) [Compound 1144] | 0.04 to 0.2 µM | –
COCCOCCOc1ccc(C2c3[nH]c4ccc(Cl)cc4c3CCN2C(=O)Oc2ccccc2Cl)cc1 (stereo not drawn) [Compound 674] | 0.008 to 0.04 µM | –
CC(=O)Oc1ccc([C@@H]2c3[nH]c4ccc(Cl)cc4c3CCN2C(=O)Oc2ccc(Cl)cc2)cc1 [Compound 1539] | – | EC50 [1]: 0.04 to 0.2 µM
COCCN(CCCOc1ccc(C2c3[nH]c4ccc(Cl)cc4c3CCN2C(=O)Oc2ccc(F)cc2)cc1)CCOC (stereo not drawn) [Compound 990] | – | EC50 (HeLa, read-out: ELISA EC50 μM): < 0.008 µM
N#CCOc1ccc(C2c3[nH]c4ccc(Cl)cc4c3CCN2C(=O)Oc2ccccc2Cl)cc1 (stereo not drawn) [Compound 1546] | – | EC50 [1]: 0.04 to 0.2 µM
Cc1ccc(OC(=O)N2CCc3c([nH]c4ccc(Cl)cc34)[C@@H]2c2ccc(OCCC(O)CNC(=O)c3ccccn3)cc2)cc1 (stereo partly drawn) [Compound 1641] | – | EC50 [1]: < 0.008 µM
O=C(Oc1ccc(Cl)cc1)N1CCc2c([nH]c3ccc(Cl)cc23)C1c1ccc(OCC2CO2)cc1 (stereo not drawn) [Compound 460] | 0.008 to 0.04 µM | –
COCCCNCCCCCCOc1ccc(C2c3[nH]c4ccc(Cl)cc4c3CCN2C(=O)Oc2ccc(Cl)cc2)cc1 (stereo not drawn) [Compound 785] | – | EC50 (HeLa, read-out: ELISA EC50 μM): < 0.008 µM
O=C(Oc1ccccc1Cl)N1CCc2c([nH]c3ccc(Cl)cc23)C1c1ccc(F)cc1 (stereo not drawn) [Compound 588] | 0.04 to 0.2 µM | –
Cc1ccc(OC(=O)N2CCc3c([nH]c4ccc(Cl)cc34)[C@@H]2c2ccc(OCC[C@H](O)CO)cc2)cc1 [Compound 1292] | < 0.008 µM | –
O=C(Oc1ccc(F)cc1)N1CCc2c([nH]c3ccc(Cl)cc23)C1c1ccc(OCCCCCCn2cncn2)cc1 (stereo not drawn) [Compound 781] | < 0.008 µM | –
CCC(CO)(CO)COc1ccc([C@H]2c3[nH]c4ccc(Cl)cc4c3CCN2C(=O)Oc2ccc(Cl)cc2)cc1 [Compound 1329] | – | EC50 [1]: < 0.008 µM
O=C(O)c1ccc(C2c3[nH]c4ccc(Br)cc4c3CCN2C(=O)Oc2ccc(Cl)cc2)cc1 (stereo not drawn) [Compound 519] | 0.2 to 1 µM | –
O=C(Oc1ccc(Cl)cc1)N1CCc2c([nH]c3ccc(Cl)cc23)[C@@H]1c1ccc(Oc2ncc(CN3CCOCC3)s2)cc1 [Compound 1660] | – | EC50 (HeLa, read-out: ELISA EC50 μM): < 0.008 µM
O=C(Oc1ccc(Cl)cc1)N1CCc2c([nH]c3ccc(Cl)cc23)[C@@H]1c1ccc(Oc2ccc(Cl)nn2)cc1 [Compound 1698] | – | EC50 [1]: < 0.008 µM
CN1CCN(Cc2cnc(Oc3ccc([C@H]4c5[nH]c6ccc(Cl)cc6c5CCN4C(=O)Oc4ccc(Cl)cc4)cc3)s2)CC1 [Compound 1661] | – | EC50 (HeLa, read-out: ELISA EC50 μM): < 0.008 µM
Cc1cnc(NCCOc2ccc(C3c4[nH]c5ccc(Cl)cc5c4CCN3C(=O)Oc3ccc(Cl)cc3)cc2)s1 (stereo not drawn) [#842] | < 0.008 µM | –
COCCN(C)CCCOc1ccc(C2c3[nH]c4ccc(Cl)cc4c3CCN2C(=O)Oc2ccc(Cl)cc2)cc1 (stereo not drawn) [Compound 908] | – | EC50 (HeLa, read-out: ELISA EC50 μM): < 0.008 µM
O=C(Oc1ccc(Cl)cc1)N1CCc2c([nH]c3ccc(Cl)cc23)C1c1ccc(S(=O)(=O)N2CCOCC2)cc1 (stereo not drawn) [Compound 346] | 0.008 to 0.04 µM | –
